Measured values reported in paper PMC8979682, “Synthesis, Antioxidant, and Antidiabetic Activities of Ketone Derivatives of Succinimide” (Evidence-based Complementary and Alternative Medicine : eCAM, 2022).
Converted amounts (≈) assume the structure as drawn. Values belong to the compound of their own block, whether it stands above or below them.

Columns and labels:
[1] = tested on: α-amylase; assay: in vitro α-amylase inhibition; format: biochemical
Experimental: The starch solution was added, following incubation of the mixture, and the reaction mixture thus prepared was kept in water bath at 100°C for some time. Microplate reader measured the intensity of the color at 656 nm. Following formula was used to determine percentage inhibition:(3) percent inhibition=absorbancecontrol−absorbancesample/absorbancecontrol×100.

[2] = tested on: α-glucosidase; assay: in vitro α-glucosidase inhibition; format: biochemical
Experimental: For in vitro α-glucosidase activity, samples were prepared by adding glucopyranoside to phosphate buffer solvent, and different concentrations of the synthesized compounds (31.25, 62.5, 125, 250, and 500 µg/ml), respectively, were added to this solution and then the enzyme glucosidase in distilled water (0.5 µg/ml) was also added to the above mixture. The reaction mixture thus prepared was subjected to incubation at 37°C for 20 minutes. The reaction was halted by adding HCl after incubation of the mixture. The intensity of the color was determined at 540 nm by spectrophotometer, and the formula given below was used for the determination of percent inhibition:(2) percent inhibition=absorbancecontrol−absorbancesample/absorbancecontrol×100.

[3] = DPPH scavenging activity; format: biochemical
Experimental: The antioxidant assay of the synthesized compounds was conducted following the previously reported method. A freshly prepared DPPH solution (50 μL of 1.0 × 10^−3 M) was added in methyl alcohol. Methanol was used as a control in this experiment. The prepared mixture was subjected to incubation at 25°C for 30 min. A decrease in the DPPH free radical concentration was calculated using a spectrophotometer at a wavelength of 517 nm. After incubation ascorbic acid was used as a positive control. The antioxidant activity was determined as a percent (%) of inhibition using the formula given:(1) percent inhibition=absorbancecontrol−absorbancesample/absorbancecontrol×100.

[4] = ABTS scavenging activity; format: biochemical
Experimental: For the determination of the antioxidant activity of the synthesized compounds, the previously reported method for ABTS scavenging activity was used with slight modification. The stock solution of 2.4 mM of potassium per sulfate solution and 7 mM ABTS solution was prepared by mixing them in equal volumes for 16 h. The stock solution thus prepared was diluted using methyl alcohol to give absorption of 0.7 ± 0.02 units when studied at the wavelength of 734 nm using a spectrophotometer. Fresh ABTS solution was prepared for each ABTS scavenging assay. About 150 μL of the ABTS working solution was added to 50 μL of synthesized compounds and kept in darkness for 10 min. […] Methanol was used as blank, and standard ascorbic acid was run at the same time. The absorbance was calculated utilizing a microplate reader at 734 nm.

[5] = tested on: mice; assay: oral glucose tolerance test (OGTT); format: in vivo; conditions: glucose 2 g/kg orally
Experimental: To perform OGTT mice fasted overnight were used including both control and treated mice. Glucose was administered orally at the dose of 2 g/kg against glibenclamide as standard drug. After administration of glucose, blood glucose level was calculated at time intervals of 0, 30, 60, and 120 min for assessment of the impact of exogenously given D-glucose on treated mice. OGTT was carried out 5 days before the completion of the study.
To perform OGTT, mice fasted overnight were used including both control and treated mice. Glucose was administered orally at the dose of 2 g/kg against glibenclamide as a standard drug. After administration of glucose, blood glucose level was calculated at time intervals of 0, 30, 60, and 120 min for assessment of the impact of exogenously given D-glucose on treated mice.

[6] = tested on: diabetic mice (by alloxan); assay: antidiabetic activity in diabetic mice (by alloxan); format: in vivo
Experimental: Alloxan was used for the induction of diabetes mellitus according to reported procedure. Recently prepared Alloxan (ALX) was injected intraperitoneally to animals, fasting for 16 h, at a single dose of (150 mg/kg). […] Only diabetic animals, having random blood glucose level more than 200 mg/dl, were selected for studies. All the experimental procedure were approved from the ethical committee department of pharmacy, University of Swabi via letter No; UOS-06/2021.
A total of 30 animals were used to determine the hypoglycemic effect of the synthesized derivatives of succinimide. The experimental animals were segregated in six groups […], having five (5) animals in each group. Group I was designated as normal group and was given normal saline I/P only. Group II was given Tween 80, and Group III was given standard drug (glibenclamide) after the induction of diabetes. Group IV, Group V, and Group VI were given the various doses of synthesized compounds, respectively. […]

Compound: C[C@H]1O[C@H](O[C@H]2[C@H](O)[C@@H](O)[C@@H](O[C@H]3[C@H](O)[C@@H](O)C(O)O[C@@H]3CO)O[C@@H]2CO)[C@H](O)[C@@H](O)[C@@H]1N[C@H]1C=C(CO)[C@@H](O)[C@H](O)[C@H]1O (stereo partly drawn) [Acarbose, reference compound]
% inhibitions (α-amylase) ([1]; 31.25 µg/ml): 63.62 ± 0.58%
% inhibitions (α-amylase) ([1]; 62.50 µg/ml): 69.42 ± 1.55%
% inhibitions (α-amylase) ([1]; 125 µg/ml): 76.20 ± 0.49%
% inhibitions (α-amylase) ([1]; 250 µg/ml): 82.47 ± 0.71%
% inhibitions (α-amylase) ([1]; 500 µg/ml): 87.75 ± 0.42%
% inhibitions (α-glucosidase) ([2]; 31.25 µg/ml): 67.90 ± 0.45%
% inhibitions (α-glucosidase) ([2]; 62.50 µg/ml): 73.00 ± 0.30%
% inhibitions (α-glucosidase) ([2]; 125 µg/ml): 80.90 ± 0.60%
% inhibitions (α-glucosidase) ([2]; 250 µg/ml): 86.45 ± 0.90%
% inhibitions (α-glucosidase) ([2]; 500 µg/ml): 92.23 ± 0.22%

IC50 (DPPH) [3]: 7.10 µg/mL (≈ 40.3 µM)
IC50 (ABTS) [4]: 6.84 µg/mL (≈ 38.8 µM)
Compound: O=C1O[C@H]([C@@H](O)CO)C(O)=C1O [Ascorbic acid, reference compound]
(%) DPPH inhibitions ([3]; 31.25 µg/ml): 68.42 ± 0.43%
(%) DPPH inhibitions ([3]; 62.50 µg/ml): 73.22 ± 1.28%
(%) DPPH inhibitions ([3]; 125 µg/ml): 79.52 ± 0.66%
(%) DPPH inhibitions ([3]; 250 µg/ml): 84.56 ± 0.45%
(%) DPPH inhibitions ([3]; 500 µg/ml): 90.65 ± 1.32%
(%) ABTS inhibitions ([4]; 31.25 µg/ml): 63.89 ± 0.20%
(%) ABTS inhibitions ([4]; 62.50 µg/ml): 75.45 ± 0.90%
(%) ABTS inhibitions ([4]; 125 µg/ml): 77.61 ± 0.43%
(%) ABTS inhibitions ([4]; 250 µg/ml): 82.40 ± 0.20%
(%) ABTS inhibitions ([4]; 500 µg/ml): 87.08 ± 0.47%

Compound: O=C1CCCCC1C1CC(=O)N(c2ccccc2)C1=O (stereo not drawn) [BW1, (2-Oxocyclohexyl)-1-Phenylpyrrolidine-2,5-Dione]
IC50 (DPPH) [3]: 10.84 µg/mL (≈ 40 µM)
(%) DPPH inhibitions ([3]; 31.25 µg/ml): 62.03 ± 0.77^∗∗∗ %
(%) DPPH inhibitions ([3]; 250 µg/ml): 77.23 ± 0.96^∗∗∗ %
(%) DPPH inhibitions ([3]; 500 µg/ml): 85.83 ± 0.47^∗∗ %
OGTT blood glucose, 0 minutes [5]: 165.8 mg/dL
OGTT blood glucose, 30 minutes [5]: 194.4 mg/dL
OGTT blood glucose, 60 minutes [5]: 211.8 mg/dL
OGTT blood glucose, 120 minutes [5]: 160.3 mg/dL
IC50 (α-amylase) [1]: 13.90 µg/mL (≈ 51.2 µM)
% inhibitions (α-amylase) ([1]; 31.25 µg/ml): 57.40 ± 0.40^∗∗∗ %
% inhibitions (α-amylase) ([1]; 62.50 µg/ml): 65.08 ± 0.66^∗∗∗ %
% inhibitions (α-amylase) ([1]; 125 µg/ml): 71.78 ± 0.44^∗∗∗ %
% inhibitions (α-amylase) ([1]; 250 µg/ml): 75.32 ± 0.40^∗∗∗ %
% inhibitions (α-amylase) ([1]; 500 µg/ml): 81.60 ± 0.00^∗∗∗ %
IC50 (α-glucosidase) [2]: 10.49 µg/mL (≈ 38.7 µM)
% inhibitions (α-glucosidase) ([2]; 31.25 µg/ml): 65.80 ± 0.90^ns %
% inhibitions (α-glucosidase) ([2]; 62.50 µg/ml): 70.40 ± 0.20^ns %
% inhibitions (α-glucosidase) ([2]; 125 µg/ml): 76.58 ± 0.63^ns %
% inhibitions (α-glucosidase) ([2]; 250 µg/ml): 83.45 ± 0.90^ns %
% inhibitions (α-glucosidase) ([2]; 500 µg/ml): 89.08 ± 1.04^ns %
IC50 (ABTS) [4]: 9.40 µg/mL (≈ 34.6 µM)
(%) ABTS inhibitions ([4]; 31.25 µg/ml): 55.67 ± 0.32^∗∗∗ %
(%) ABTS inhibitions ([4]; 62.50 µg/ml): 66.16 ± 0.16^∗∗∗ %
(%) ABTS inhibitions ([4]; 125 µg/ml): 70.62 ± 0.25^∗∗∗ %
(%) ABTS inhibitions ([4]; 250 µg/ml): 73.36 ± 0.84^∗∗∗ %
(%) ABTS inhibitions ([4]; 500 µg/ml): 78.35 ± 0.23^∗∗∗ %
Change in body weight ([6]; dose 31.25 μg/kg): +2.3 Gm
Blood glucose level, 0 day ([6]; dose 31.25 μg/kg): 418 mg/dL
Blood glucose level, 4th day ([6]; dose 31.25 μg/kg): 408 mg/dL
Blood glucose level, 7th day ([6]; dose 31.25 μg/kg): 399 mg/dL
Blood glucose level, 10th day ([6]; dose 31.25 μg/kg): 382 mg/dL
Blood glucose level, 15th day ([6]; dose 31.25 μg/kg): 375 mg/dL
Change in body weight ([6]; dose 62.5 μg/kg): +4.3 Gm
Decrease in blood glucose after 15 days ([6]; dose 62.5 μg/kg): 34 mg/dL
Blood glucose level, 0 day ([6]; dose 62.5 μg/kg): 380 mg/dL
Blood glucose level, 4th day ([6]; dose 62.5 μg/kg): 371 mg/dL
Blood glucose level, 7th day ([6]; dose 62.5 μg/kg): 365 mg/dL
Blood glucose level, 10th day ([6]; dose 62.5 μg/kg): 351 mg/dL
Blood glucose level, 15th day ([6]; dose 62.5 μg/kg): 346 mg/dL
Change in body weight ([6]; dose 125 μg/kg): +4.1 Gm
Decrease in blood glucose after 15 days ([6]; dose 125 μg/kg): 49 mg/dL
Blood glucose level, 0 day ([6]; dose 125 μg/kg): 443 mg/dL
Blood glucose level, 4th day ([6]; dose 125 μg/kg): 431 mg/dL
Blood glucose level, 7th day ([6]; dose 125 μg/kg): 413 mg/dL
Blood glucose level, 10th day ([6]; dose 125 μg/kg): 401 mg/dL
Blood glucose level, 15th day ([6]; dose 125 μg/kg): 394 mg/dL
Change in body weight ([6]; dose 250 μg/kg): +5.7 Gm
Decrease in blood glucose after 15 days ([6]; dose 250 μg/kg): 207 mg/dL
Blood glucose level, 0 day ([6]; dose 250 μg/kg): 421 mg/dL
Blood glucose level, 4th day ([6]; dose 250 μg/kg): 397 mg/dL
Blood glucose level, 7th day ([6]; dose 250 μg/kg): 345 mg/dL
Blood glucose level, 10th day ([6]; dose 250 μg/kg): 219 mg/dL
Blood glucose level, 15th day ([6]; dose 250 μg/kg): 214 mg/dL
Change in body weight ([6]; dose 500 μg/kg): +7.1 Gm
Decrease in blood glucose after 15 days ([6]; dose 500 μg/kg): 121 mg/dL
Blood glucose level, 0 day ([6]; dose 500 μg/kg): 412 mg/dL
Blood glucose level, 4th day ([6]; dose 500 μg/kg): 388 mg/dL
Blood glucose level, 7th day ([6]; dose 500 μg/kg): 372 mg/dL
Blood glucose level, 10th day ([6]; dose 500 μg/kg): 312 mg/dL
Blood glucose level, 15th day ([6]; dose 500 μg/kg): 291 mg/dL

Compound: COc1ccc(Cl)cc1C(=O)NCCc1ccc(S(=O)(=O)NC(=O)NC2CCCCC2)cc1 [Glibenclamide, reference compound]
OGTT blood glucose, 0 minutes [5]: 151.5 mg/dL
OGTT blood glucose, 30 minutes [5]: 176.7 mg/dL
OGTT blood glucose, 60 minutes [5]: 214.3 mg/dL
OGTT blood glucose, 120 minutes [5]: 140.5 mg/dL
Change in body weight ([6]; dose 0.5 (μg/kg)): +10.3 Gm
Decrease in blood glucose after 15 days ([6]; dose 0.5 (μg/kg)): 275 mg/dL
Blood glucose level, 0 day ([6]; dose 0.5 (μg/kg)): 473 mg/dL
Blood glucose level, 4th day ([6]; dose 0.5 (μg/kg)): 303 mg/dL
Blood glucose level, 7th day ([6]; dose 0.5 (μg/kg)): 257 mg/dL
Blood glucose level, 10th day ([6]; dose 0.5 (μg/kg)): 212 mg/dL
Blood glucose level, 15th day ([6]; dose 0.5 (μg/kg)): 198 mg/dL
